Measurements: article PMC4356482 (Bioorganic & medicinal chemistry letters, 2011)
pKd: −log10 of the molar value.

Columns and labels:
Assay type in all cases: binding
[1] = molecular target: T1, fatty acid synthase I (FAS I) (Mycobacterium tuberculosis, UniProt P95029); test: STD-NMR
[2] = molecular target: T1, fatty acid synthase I (FAS I); test: STD-NMR, competition titration with PZA
[3] = molecular target: T1, fatty acid synthase I (FAS I); test: biochemical

Structure (SMILES) | STD-NMR, competition titration with PZA [2] | other results
C/C=C/C/C=C/CCC(=O)[C@H]1O[C@H]1C(N)=O [Cerulenin] |  | STD-NMR (positive control, 350 μM cerulenin) [1]: displays signals corresponding to cerulenin resonances that are indicative of cerulenin binding to Mtb FAS I
NC(=O)C1=CN([C@@H]2O[C@H](COP(=O)(O)OP(=O)(O)OC[C@H]3O[C@@H](n4cnc5c(N)ncnc54)[C@H](OP(=O)(O)O)[C@@H]3O)[C@@H](O)[C@H]2O)C=CC1 [NADPH] | Consistent with the binding of NADPH to Mtb FAS I the intensity of the NADPH resonances increases. | 
O=C(O)c1cnccn1 [POA, pyrazinoic acid] | although POA binds reversibly to Mtb FAS I it does not compete with PZA since PZA is apparently not displaced | 
NC(=O)c1cnccn1 [PZA, Pyrazinamide] |  | pKd [3]: 3.91 to 4.15
